pKi: −log10 of the molar value.
How the values were obtained:
human CB2 = target: T1, human CB2 (Homo sapiens, UniProt P34972); assay: CB2 receptor binding assay, [3H]CP-55,940, membranes of transfected CHO cells
T1 construct: expressed in transfected cells; host or cells: CHO cells, stably transfected; crude membranes
Description: For CB1 receptor binding assay synaptosomal membranes from rat brains were used. Sabra male rats weighing ˜200 g were decapitated and their brains, without the brain stem, were quickly removed. Synaptosomal membranes were prepared from the brains by centrifugation and sucrose density gradient ultracentrifugation after their homogenization. The CB2 receptor binding assays were performed using crude membranes obtained from Chinese hamster ovary (CHO) cells stably transfected with the human CB2 cDNA.
Bound and free radioligand were separated by centrifugation (13,000 rpm for 6 min). Non-specific binding, which was determined with 50 nM unlabelled CP-55,940, was subtracted. Binding experiments were repeated 2-3 times and each point performed in triplicate. The Ki values were determined using the GraphPad Prism program (La Jolla, Calif., USA) and the Cheng-Prusoff equation.

Male Swiss mice [1] = assay: Forced swimming test (FST), Example 9; type: in vivo; details: doses of 3 and 10 mg/kg ip; p<0.05
Description: (§1) Male Swiss mice (25-30 g) originated from the Central Animal Farm of the School of Medicine of Ribeirão Preto (FMRP-USP) were maintained in groups of five animals per box (41×33×17 cm) in a temperature controlled room (24±2° C.) with a 12×12 h light-dark cycle. They received water and food ad libitum throughout the study period.
(§2) Cannabidiol (CBD; THC Pharm, 15-60 mg/kg) and HU-485 (1-10 mg/kg) were administered intraperitoneally (ip). All drugs were dissolved in 2% Tween 80 in sterile saline.
Animals were submitted to 6 min of forced swimming in glass cylinders (height 25 cm, diameter 17 cm) containing 10 cm of water at 23-25° C. Immobility time (characterized by slow movements necessary to avoid drowning) was measured during the last 4-min period. The water was changed after each trial to prevent the influence of alarm substances (Zanelati et al., 2010). Antidepressants typically decrease immobility time in this test.
Results were analyzed by one-way ANOVA followed by Duncan test. Significant level was set at p<0.05.
Animals received an injection of vehicle (V, n=7 animals/group) or HU-485 and were tested in the EPM 20 min later. Immediately after the test they were submitted to the FST for 6 min. Data represents the means±SEM of immobility time in the FST and the % of open arm entries and time spent in these arms of the EPM. * indicates difference from V group.

Male Swiss mice [2] = assay: Elevated plus maze (EPM), Example 9; type: in vivo; details: 10 mg/kg ip
Description: as §1, §2
The wood-made EPM was located in a sound attenuated and temperature controlled room (23° C.), with one incandescent light (40 W) placed 1.3 m away from the maze. The apparatus consisted of two opposing open arms (30×5 cm) perpendicular to two enclosed arms (30×5×40 cm), with a central platform common to all arms (5×5 cm). The apparatus was elevated 50 cm above the ground and an acrylic edge (1 cm) surrounded the open arms to prevent animal falls. […] The test lasted for 5 min and the animal behavior was analyzed with the help of the Anymaze Software (version 4.5, Stoelting), which indicated the position of the animal in the maze and calculated the percentage of entries (Peo) and time spent in the open arms (Pto) and the number of entries in the enclosed arms (EA). […]
(§3) Results were analyzed by one-way ANOVA followed by Duncan test. […]

Male Swiss mice [3] = assay: Pre-pulse inhibition (PPI), impairment induced by amphetamine; type: in vivo
Description: as §1, §2
The PPI test was conducted simultaneously in two identical startle response systems (Med Associates, USA). A continuous acoustic signal provided a background white noise level of 65 dB. The pulse consists of a 105 dB white noise burst with a rise/decay of 5 ms and duration of 20 ms. The pre-pulse comprised pure 7000 Hz tones, 10 ms duration, with intensities set at 80, 85, and 90 dB. The setups were daily calibrated to ensure equal sensitivity throughout the experiments. Calibration was performed by adjusting the gain on the load cell amplifier to 150 arbitrary units (AU) at a standard weight appropriated for a 40 g mice. The limits of the load cell were −2047 to +2047 AU. Thirty min after the injection of the tested compounds mice received i.p. injections of amphetamine 10 mg/kg or vehicle. […] The first 10 pulse-alone trials allow for the within-session habituation to the startle stimulus and are not considered for PPI statistical analysis. The test consisted of 64 pseudo-random trials divided into eight different groups presented with an inter-stimulus interval of 30 s, and consisting of pulse alone (105 dB), pre-pulse alone (80, 85, or 90 dB), pre-pulse+pulse with 100 ms interval between pre-pulse and pulse, and no stimulus presented. […] Mean acoustic startle response to pulse-alone (P) trials and each pre-pulse+pulse (PP+P) trial was recorded for each subject. PPI was calculated by expressing the pre-pulse+pulse startle amplitude as a percentage of decrease from pulse-alone startle amplitude, according to the following formula: % PPI=100−[100×(PP+P/P)]. This transformation reduces statistical variability attributable to differences between animals and it is a direct PPI measure. Antipsychotic drugs typically attenuate PPI impairment induced by amphetamine.
as §3
Animals received a first injection of vehicle (V) or CBD, followed 30 min later, by vehicle (n=9) or amphetamine 10 mg/kg (V+amphetamine group=9 animals). PPI was evaluated at three-stimuli intensity (90, 85 and 80 dB). […]
Animals received a first injection of vehicle (V) or HU-485, followed 30 min later, by vehicle (n=7) or amphetamine 10 mg/kg (V+amphetamine group=7 animals). PPI was evaluated at three-stimuli intensity (90, 85 and 80 dB). […]

T1 sequence (P34972 whole entry): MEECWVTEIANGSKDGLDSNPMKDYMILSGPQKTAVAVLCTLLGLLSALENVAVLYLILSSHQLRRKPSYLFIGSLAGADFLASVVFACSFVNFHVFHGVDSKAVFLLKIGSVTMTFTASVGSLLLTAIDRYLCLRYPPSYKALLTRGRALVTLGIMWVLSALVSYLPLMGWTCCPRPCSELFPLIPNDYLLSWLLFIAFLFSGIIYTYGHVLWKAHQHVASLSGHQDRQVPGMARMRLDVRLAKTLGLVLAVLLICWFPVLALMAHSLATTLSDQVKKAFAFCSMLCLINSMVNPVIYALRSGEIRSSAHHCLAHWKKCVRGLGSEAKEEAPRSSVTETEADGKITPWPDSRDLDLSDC

Compound | pKi (human CB2) | immobility time in the FST (Male Swiss mice [1]) | number of enclosed arm entries (Male Swiss mice [2]) | percentage of time spent in the open arms of the EPM (Male Swiss mice [2]; Duncan p<0.05) | effect on PPI by itself (Male Swiss mice [3]; 30 mg/kg, without amphetamine) | effect on PPI impairment by amphetamine (Male Swiss mice [3]; HU-485 3, 10 and 30 mg/kg, any dose, amphetamine 10 mg/kg)
CCCCCc1cc(O)c(C2C=C(C)C(F)C[C@H]2C(C)C)c(O)c1 (stereo partly drawn) [HU-487] | 5.30 to 5.40 | – | – | – | – | –
CCCCCc1cc(O)c(C2C=C(CF)CC[C@H]2C(C)C)c(O)c1 (stereo partly drawn) [HU-485] | – | decreased | without changing | increased | did not impair PPI | not attenuated

Source: patent US20190084909A1, “F[…] COMPOUNDS, COMPOSITIONS AND USES THEREOF” (YISSUM RESEARCH DEVELOPMENT COMPANY OF THE HEBREW …, priority 2015, published 2019)
